In patent US8940785B2, “Association between 4-{3-[cis-hexahydrocyclopenta[c]pyrrol-2(1H)-yl]propoxy}benzamide and an acetylcholinesterase inhibitor, and pharmaceutical compositions containing it” (priority 2011, dated 2015):
Counter-ions that a name gives are not always drawn. Like-named read-outs stand apart in the source and are kept apart here.

Tests used:
[1] = tested on: middle-aged (14-15 months old) C57B16 mouse; experiment: contextual serial discrimination test (model of episodic memory); format: in vivo; settings: chronic treatment for 9 days; for power of contextual memory (correct responses−interfering responses): carrier −28%
Excerpt: The effects of 4-{3-[cis-hexahydrocyclopenta[c]pyrrol-2(1H)-yl]propoxy}benzamide and donepezil (both in the form of a hydrochloride), administered on their own or in combination, were studied using a contextual serial discrimination test in the middle-aged (14-15 months old) C57B16 mouse (n=12 per group) (Célérier et al., Learn Mem., 2004, 11(2), 196-204; Tronche et al., Behav. Brain Res., 2010, 215(2): 255-60). […] This model is relevant for evaluating the effects of products in Alzheimer's disease because patients suffering from that form of dementia also have disturbances of contextual episodic memory, this being the case from a very early stage (Gold and Budson, Expert Rev Neurother., 2008, 8(12): 1879-1891).
The mice, placed in a box with raised edges, learn two types of consecutive spatial discrimination (D1: white floor, then D2: black floor) on a floor with four holes, in which just one of the holes is baited, the arrangement being opposite in D1 and in D2 (see FIG. 1). Each discrimination is performed on a specific floor (black or white), which constitutes the internal context specific to each discrimination. 24 hours after the learning step, the mice are returned to the white contextual floor, and the following are measured: • the percentage of correct responses (i.e. % of lowering the head into the hole that was baited during the learning exercise on the white floor), • the percentage of interfering responses (i.e. % of lowering the head into the hole that was baited during the learning exercise on the black floor, the last context presented to the mice), • and the percentage of errors (i.e. % of lowering the head into the two holes that were not baited during learning, whether on the white floor or on the black floor (see FIG. 1).
The effects of 4-{3-[cis-hexahydrocyclopenta[c]pyrrol-2(1H)-yl]propoxy}benzamide and rivastigmine (used in the form of a hydrogen tartrate), administered on their own or in combination, were studied using the contextual serial discrimination test in the middle-aged C57B16 mouse described in the Example above.
The effects of 4-{3-[cis-hexahydrocyclopenta[c]pyrrol-2(1H)-yl]propoxy}benzamide and galantamine (used in the form of a hydrobromide), administered on their own or in combination, were also studied using the contextual serial discrimination test in the middle-aged C57B16 mouse.

C57B16 mouse = settings: administered on its own
Procedure: The effects, in terms of safety, of 4-{3-[cis-hexahydrocyclopenta[c]pyrrol-2(1H)-yl]propoxy}-benzamide and donepezil (both in the form of a hydrochloride), administered on their own or in association, were studied using Irwin's primary observation test in the C57B16 mouse (n=4 individuals per group).
Behavioural changes, physiological and neurotoxic symptoms, rectal temperature and pupil diameter were recorded using a standardised observation grid derived from that of Irwin.

NC(=O)c1ccc(OCCCN2C[C@H]3CCC[C@H]3C2)cc1 [4-{3-[cis-hexahydrocyclopenta[c]pyrrol-2(1H)-yl]propoxy}benzamide]
increase in the level of correct responses compared to the carrier ([1]; Example A, FIG. 2, 0.3 mg/kg of base per os): more than 60% | increase in the level of correct responses compared to the carrier ([1]; Example A, FIG. 2, 1 mg/kg of base per os): more than 60% | power of contextual memory (correct responses−interfering responses) ([1]; Example B, FIG. 4, 0.3 mg/kg of base per os): +6% | power of contextual memory (correct responses−interfering responses) ([1]; Example B, FIG. 4, 1 mg/kg of base per os): +10% | power of contextual memory (correct responses−interfering responses) ([1]; Example C, FIG. 5, 0.3 mg/kg of base per os): −3% | power of contextual memory (correct responses−interfering responses) ([1]; Example C, FIG. 5, 1 mg/kg of base per os): +9% | observable changes in Irwin's test (C57B16 mouse; 0.3 and 1 mg/kg of base per os): no observable changes

CCN(C)C(=O)Oc1cccc([C@H](C)N(C)C)c1 [rivastigmine, reference compound]
power of contextual memory (correct responses−interfering responses) ([1]; Example B, FIG. 4, rivastigmine 0.1 mg/kg of base per os): −9%

COc1cc2c(cc1OC)C(=O)C(CC1CCN(Cc3ccccc3)CC1)C2 (stereo not drawn) [donepezil hydrochloride, donepezil]
percentage of correct responses compared to the carrier ([1]; Example A, FIG. 2, donepezil hydrochloride 0.1 mg/kg of base per os, tested 24 hours after learning): no significant improvement | observable changes in Irwin's test (C57B16 mouse; donepezil 1 mg/kg of base per os (strongest dose)): reduces reactivity to touch and causes slight sedation | observable changes in Irwin's test (C57B16 mouse; donepezil 0.1 and 0.3 mg/kg of base per os): no observable changes

COc1ccc2c3c1O[C@H]1C[C@@H](O)C=C[C@@]31CCN(C)C2 [galantamine, reference compound]
power of contextual memory (correct responses−interfering responses) ([1]; Example C, FIG. 5, galantamine 0.3 mg/kg of base per os): −18%
